From PubChem BioAssay (NCI) come the findings set out here.

Test systems include M14 melanoma; UACC-62 melanoma; HT29 colon; SK-MEL-5 melanoma; SW-620 colon; NCI-H226 lung; UACC-257 melanoma; TK-10 renal; SK-MEL-2 melanoma; NCI/ADR-RES ovarian; MDA-MB-435.
Common to all, as to test: DTP human tumour cell line panel, 48 h

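A five-concentration, 48-hour dose response in 96-well plates underlies each endpoint, interpolated linearly between surrounding concentrations. TGI is the concentration that stops growth completely.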 Where only a bound is given, the exact number is not on record here.

`CC(=O)OC1/C=C(\C)C(OC(C)=O)C/C=C(/C)CCC2C(/C=C/C1=O)C2(C)C` (configuration not stated): the TGI in the assay with M14 melanoma, in the assay with UACC-62 melanoma, in the assay with HT29 colon, with SK-MEL-5 melanoma, with SW-620 colon and in the assay on NCI-H226 lung was > 100 µM throughout. In addition, the TGI in the assay with UACC-257 melanoma, in the assay on TK-10 renal and in the assay on SK-MEL-2 melanoma was > 100 µM throughout.

As to `COc1cc(C2C3C=CC=C4CC=CC(=C43)C3CCC(=O)N32)cc(OC)c1OC` (configuration not stated), the TGI in the assay with M14 melanoma was > 100 µM; in the assay on NCI/ADR-RES ovarian, 69.8 µM; in the assay with UACC-62 melanoma, > 100 µM; in the assay on HT29 colon it was > 100 µM; in the assay on SW-620 colon, > 100 µM; in the assay with NCI-H226 lung it was 36.3 µM. Besides, the TGI in the assay on UACC-257 melanoma, in the assay with TK-10 renal, in the assay on SK-MEL-2 melanoma and in the assay with MDA-MB-435 was > 100 µM in each case.

As to `O=C(O)CCCc1nc2c(n1Cc1ccccc1)C(=O)c1ccccc1C2=O`, the TGI in the assay with M14 melanoma was 20.6 µM; with NCI/ADR-RES ovarian it was > 100 µM; in the assay on UACC-62 melanoma it was > 100 µM; with SW-620 colon, > 100 µM; with UACC-257 melanoma, 80.1 µM; in the assay on TK-10 renal, > 100 µM. This compound had a TGI with SK-MEL-2 melanoma of 52.9 µM.

Consider `CCCCCCNc1n[nH]c(=O)c2c1nnn2Cc1ccccc1`, for which the TGI in the assay with M14 melanoma, with NCI/ADR-RES ovarian, in the assay on HT29 colon, with SK-MEL-5 melanoma, in the assay with UACC-257 melanoma and with TK-10 renal was > 100 µM in each case. The total growth inhibition concentration (TGI) in the assay with SK-MEL-2 melanoma and in the assay with MDA-MB-435 was > 100 µM throughout.

As to `CC1CC(OP(=O)(OCc2ccccc2)OCc2ccccc2)[C@@H](OCc2ccccc2)C(OCc2ccccc2)C1OCc1ccccc1` (some centres not stated), the TGI in the assay with M14 melanoma, with NCI/ADR-RES ovarian, in the assay with UACC-62 melanoma, with HT29 colon, in the assay with SK-MEL-5 melanoma and with SW-620 colon was > 100 µM throughout. The TGI with NCI-H226 lung, with UACC-257 melanoma, in the assay with TK-10 renal and in the assay on SK-MEL-2 melanoma was > 100 µM in each case.

With `C[C@H]1[C@H]2[C@H]3CC[C@@H]4[C@@]5(C)CC[C@H](O)C(C)(C)[C@@H]5CC[C@@]4(C)[C@]3(C)C[C@H](O)[C@@]2(C)C[C@H]2O[C@]21C`, the TGI was 73.6 µM in the assay with M14 melanoma; 51.8 µM with NCI/ADR-RES ovarian; 76 µM in the assay with UACC-62 melanoma; 30.2 µM in the assay on HT29 colon; 42.6 µM in the assay with SK-MEL-5 melanoma; 70.1 µM in the assay with SW-620 colon. The TGI with UACC-257 melanoma is 39.4 µM; in the assay on TK-10 renal it was 41.5 µM; with SK-MEL-2 melanoma, 41.2 µM; in the assay with MDA-MB-435, 46 µM.

Take `CCN(CC)CCNc1ccc2nnn3c4ccc(OCCN(CC)CC)cc4c(=O)c1c23`: the TGI in the assay with M14 melanoma is > 100 µM; with NCI/ADR-RES ovarian it was > 100 µM; in the assay on UACC-62 melanoma, > 100 µM; in the assay on HT29 colon, 54.2 µM; in the assay on SW-620 colon it was > 100 µM; with UACC-257 melanoma, > 100 µM. The TGI in the assay on TK-10 renal, with SK-MEL-2 melanoma and with MDA-MB-435 was > 100 µM throughout.

`O=c1sc2ccccc2n1CC1CS1` (configuration not stated): the TGI with M14 melanoma, in the assay on UACC-62 melanoma, in the assay with HT29 colon, in the assay with SW-620 colon, in the assay on NCI-H226 lung and in the assay on TK-10 renal was > 100 µM throughout. In the assay on SK-MEL-2 melanoma, the TGI was > 100 µM.

As for `O=P(O)(O)CCP(=O)(O)O`, the TGI in the assay on M14 melanoma, in the assay with NCI/ADR-RES ovarian, in the assay on UACC-62 melanoma, in the assay with HT29 colon, in the assay on SK-MEL-5 melanoma and with SW-620 colon was > 100 µM in each case. For the same compound, the TGI in the assay on UACC-257 melanoma, in the assay with TK-10 renal, with SK-MEL-2 melanoma and in the assay on MDA-MB-435 was > 100 µM in each case.

For `O=C1Nc2cccc(Cl)c2/C1=C\c1c(Cl)nc2n1CCS2`, the TGI with M14 melanoma, with NCI/ADR-RES ovarian, in the assay with UACC-62 melanoma, in the assay with HT29 colon, in the assay on SK-MEL-5 melanoma and in the assay with SW-620 colon was > 100 µM in each case. For the same compound, the TGI with UACC-257 melanoma, in the assay with TK-10 renal, with SK-MEL-2 melanoma and in the assay on MDA-MB-435 was > 100 µM throughout.

Turning to `COc1cc2c(cc1OC)C(CC1=C(c3ccccc3)CN3CCc4cc(OC)c(OC)cc4C3C1)NCC2` (configuration not stated), the TGI with M14 melanoma stood at 46.3 µM; in the assay with UACC-62 melanoma, 36.3 µM; in the assay with HT29 colon, 26.3 µM; with SK-MEL-5 melanoma it was 31.3 µM; in the assay on SW-620 colon, 34.6 µM; in the assay on NCI-H226 lung, 37.2 µM. In addition, the results for the TGI with UACC-257 melanoma, with TK-10 renal and in the assay with SK-MEL-2 melanoma were 34.3 µM, 32.7 µM and 37.1 µM, respectively.

As for `C[n+]1c2ccc(Cl)cc2nc2cc(-c3ccccc3)ccc21`, the TGI in the assay with M14 melanoma was 27.7 µM; with NCI/ADR-RES ovarian it was > 100 µM; with UACC-62 melanoma, 43.8 µM; in the assay with HT29 colon it was > 100 µM; with SK-MEL-5 melanoma it was 24.3 µM; with SW-620 colon it was > 100 µM. For the same compound, the TGI in the assay on NCI-H226 lung stood at 44.2 µM; in the assay with UACC-257 melanoma it was 32.9 µM; with TK-10 renal, 43.2 µM; with SK-MEL-2 melanoma it was 46.2 µM.

As for `CCN(CC)Cc1ccc(C(=S)Nc2ccc(Cl)cc2)s1`, the TGI was 14.2 µM with M14 melanoma; 25 µM in the assay on NCI/ADR-RES ovarian; 23 µM in the assay with UACC-62 melanoma; 12 µM in the assay with HT29 colon; 16.9 µM with SK-MEL-5 melanoma; 36.8 µM in the assay with SW-620 colon. Besides, the TGI is 18.1 µM in the assay with UACC-257 melanoma, 32.1 µM in the assay on SK-MEL-2 melanoma and 22.7 µM in the assay on MDA-MB-435.

In the case of `O=C1c2cccc3c2C(=O)c2c(cccc21)OCCOCCOCCOCCO3`, the TGI with M14 melanoma, in the assay with UACC-62 melanoma, in the assay with HT29 colon, in the assay with SK-MEL-5 melanoma, in the assay on SW-620 colon and in the assay on NCI-H226 lung was > 100 µM in each case. Besides, the TGI with UACC-257 melanoma, with TK-10 renal and in the assay with SK-MEL-2 melanoma was > 100 µM in each case.

Usually TGI stands for the concentration at which net growth stops. A lower TGI goes with greater sensitivity of the cells.
